Assay results from PMC5962642, “Dynamic imaging of adaptive stress response pathway activation for prediction of drug induced liver injury” (Archives of Toxicology, 2018).
“Also recorded” adds a separate entry of the source.

How the values were obtained:
[1] = ref livertox.nih.gov database; cited from earlier work
[2] = ref Chen et al. [2016], cited from earlier work; for DILI con. (DILI-concern labeling): FDA DILI labeling; for Hepa. (hepatotoxicity class): FDA labeling in eight classes of hepatotoxicity
[3] = C-max obtained from FDA or literature; ref per compound (FDA, Dailymed, Xu, O’Brien, Khetani, Regenthal, Gustafsson, Dawson, Ogutu, Patel, Schmidt, Ravic, Keisu, Hu, Wagner); cited from earlier work
[4] = tested on: ICAM1-GFP (NF-κB-mediated inflammatory signaling); assay: HepG2 ICAM1-GFP BAC reporter, TNFα-induced, live cell confocal imaging; type: cell-based, Human; conditions: HepG2 BAC-GFP, 8 h compound then TNFα 10 ng/mL, 24 h live imaging, 1-100 C-max
Method: Human hepatoma HepG2 cells were acquired from ATCC (clone HB8065). HepG2 Srxn1, DDIT3 (CHOP), CDKN1A (p21) and ICAM1 BAC GFP reporter cell lines were previously established and characterized (Wink et al. [2017]). […] The cell lines were used between passage 5 and 25. For live cell imaging, the cells were seeded in Greiner black μ-clear 384 wells plates, at 8000 cells per well. […] All imaging was similar as previously described^5. […] Directly after TNFα treatment the live cell imaging was started. Quantitative image analysis was performed with CellProfiler version 2.1.1 ([…] et al. [2011]) with an in house developed CellProfiler module implementing the watershed masked algorithm for segmentation (Yan and Verbeek [2012]; Wink et al. [2017]). Image analysis results were stored as HDF5 files. Data analysis, quality control and graphics were performed using the in house developed R package h5CellProfiler (manuscript in preparation). For each reporter hourly intensity levels of the GFP signal, the nuclear Hoechst33342 intensity levels and at 24 h the PI staining were measured at the single cell level. In addition, cell numbers, nuclei size and cell motility were measured. GFP intensity cell population means were calculated. In addition, for each plate the cell population mean GFP intensity of the DMSO treated cells was calculated to determine background control values. Per plate, the single cells that had values above the 2X mean, 3X mean were counted resulting in GFP positive fraction measures. For ICAM1, the background control values consisted of DMSO conditions treated with TNFα, and the single cells with values above, as well as below background values were counted. […] Linear regression was applied with respect to time to quantify treatment effects on a plate-to-plate basis to quantify cell speed, nuclear size, Hoechst nuclear intensity and cell numbers. […] The maximum values over time of the scaled intensity levels and positive GFP fractions were selected for the concentration response curves. These values were fit to a four parameter log-logistic model using the drc package (Ritz et al. [2015]). BMC values were calculated as the concentration at which + 0.25 (and - 0.25 for ICAM1) absolute increase from the initial response values occurred (Fig. 5a).

[5] = tested on: CHOP-GFP (ER stress/UPR response); assay: HepG2 CHOP-GFP BAC reporter, live cell confocal imaging (ER stress/UPR); type: cell-based, Human; conditions: for CHOP-GFP reporter response: HepG2 BAC-GFP, 24 h live imaging, 1-100 C-max
[6] = tested on: Srxn1-GFP (oxidative stress); assay: HepG2 Srxn1-GFP BAC reporter, live cell confocal imaging (oxidative stress); type: cell-based, Human; conditions: for Srxn1-GFP reporter response: HepG2 BAC-GFP, 24 h live imaging, 1-100 C-max; for activation of Srxn1-GFP and/or CHOP-GFP (cluster 3): cluster description, reporter not resolved per drug (Srxn1-GFP and/or CHOP-GFP); for Srxn1-GFP response at the intensity feature level (cell population): GFP intensity over the single cell population
Method: (§1) Human hepatoma HepG2 cells were acquired from ATCC (clone HB8065). HepG2 Srxn1, DDIT3 (CHOP), CDKN1A (p21) and ICAM1 BAC GFP reporter cell lines were previously established and characterized (Wink et al. [2017]). HepG2 BAC GFP reporters were maintained and exposed to drugs in DMEM high glucose supplemented with 10% (v/v) FBS, 25 U/mL penicillin and 25 µg/mL streptomycin. The cell lines were used between passage 5 and 25. For live cell imaging, the cells were seeded in Greiner black µ-clear 384 wells plates, at 8000 cells per well.
Accumulation of GFP levels, propodium iodide (PI) and Hoechst staining was monitored using a Nikon TiE2000 confocal laser microscope (lasers 540, 488 and 408 nm), equipped with an automated stage and perfect focus system at 37 °C with humidified atmosphere and 5% CO2/air mixture. All imaging was similar as previously described^5. Each 384-well plate contained one reporter cell line, which was exposed to all the compounds used in the screen at one certain concentration (1, 5, 10, 50 or 100 Cmax); for each concentration at least two replicates were imaged per reporter cell line. For the ICAM1-GFP reporter experiments, cells were first exposed for 8 h to compound only; next, TNFα was added to all wells, up to a final concentration of 10 ng/mL. Directly after TNFα treatment the live cell imaging was started.
(§2) Quantitative image analysis was performed with CellProfiler version 2.1.1 (Kamentsky et al. [2011]) with an in house developed CellProfiler module implementing the watershed masked algorithm for segmentation (Yan and Verbeek [2012]; Wink et al. [2017]). Image analysis results were stored as HDF5 files. Data analysis, quality control and graphics were performed using the in house developed R package h5CellProfiler (manuscript in preparation). For each reporter hourly intensity levels of the GFP signal, the nuclear Hoechst33342 intensity levels and at 24 h the PI staining were measured at the single cell level. In addition, cell numbers, nuclei size and cell motility were measured.
(§3) GFP intensity cell population means were calculated. In addition, for each plate the cell population mean GFP intensity of the DMSO treated cells was calculated to determine background control values. Per plate, the single cells that had values above the 2X mean, 3X mean were counted resulting in GFP positive fraction measures. For ICAM1, the background control values consisted of DMSO conditions treated with TNFα, and the single cells with values above, as well as below background values were counted. Due to the non-symmetric distribution of ICAM1 cell population GFP intensities, the interquartile range (IQR) was used to count the number of cells 1.5, 2 and 3 times above and below the TNFα IQR control values (Supplemental Fig. 1).
The maximum values over time of the scaled intensity levels and positive GFP fractions were selected for the concentration response curves. These values were fit to a four parameter log-logistic model using the drc package (Ritz et al. [2015]). BMC values were calculated as the concentration at which + 0.25 (and − 0.25 for ICAM1) absolute increase from the initial response values occurred (Fig. 5a).

[7] = two classes made from the FDA DILI-concern labeling
[8] = tested on: p21-GFP (p53-mediated DNA damage-related response); assay: HepG2 p21-GFP BAC reporter, live cell confocal imaging (DNA damage); type: cell-based, Human; conditions: 24 h live imaging, 1-100 C-max
Method: as §1
Accumulation of GFP levels, propodium iodide (PI) and Hoechst staining was monitored using a Nikon TiE2000 confocal laser microscope (lasers 540, 488 and 408 nm), equipped with an automated stage and perfect focus system at 37 °C with humidified atmosphere and 5% CO2/air mixture. All imaging was similar as previously described^5. […]
as §2, with “Image analysis results were stored as HDF5 files. Data analysis, quality control and graphics were performed using the in house developed R package h5CellProfiler (manuscript in preparation).” left out
as §3, with “Due to the non-symmetric distribution of ICAM1 cell population GFP intensities, the interquartile range (IQR) was used to count the number of cells 1.5, 2 and 3 times above and below the TNFα IQR control values (Supplemental Fig. 1).” left out

[9] = order of responses in 24 h, 100× C-max printed for nimesulide, rifampicin, oxytetracycline

Compound | Metab (metabolic potential) [1] | DILI con. (DILI-concern labeling) [2] | Hepa. (hepatotoxicity class) [2] | Cmax [3] [µM] | modulation of TNFα-induced ICAM1-GFP response [4] | Srxn1-GFP reporter response [6] | further results
O=C1CN(/N=C/c2ccc([N+](=O)[O-])o2)C(=O)N1 [Nitrofurantoin] | YES | Most-DC | 8 | 6 | strong ICAM1-GFP suppression | – | CHOP-GFP reporter response [5]: CHOP-GFP activation
CN(C)[C@@H]1C(O)=C(C(N)=O)C(=O)[C@@]2(O)C(O)=C3C(=O)c4c(O)cccc4[C@@](C)(O)[C@H]3[C@H](O)[C@@H]12 [Oxytetracycline] | – | Amb.-DC | 2 | 3.26 | – | – | Srxn1-GFP response, time dynamics relative to CHOP-GFP [6, 9]: delayed Srxn1-GFP response; CHOP-GFP response, time dynamics relative to Srxn1-GFP [5, 9]: initial CHOP-GFP response
Cn1cnc([N+](=O)[O-])c1Sc1ncnc2nc[nH]c12 [Azathioprme, azathioprine] | YES | Most-DC | 5 | 0.34 | enhancing; also recorded: mild Srxn1-GFP and ICAM1-GFP activation | mild Srxn1-GFP and ICAM1-GFP activation | –
Nc1c(CC(=O)O)cccc1C(=O)c1ccc(Br)cc1 [Bromfenac] | – | Most-DC | 8 | 18 | mild ICAM1-GFP suppression | – | activation of Srxn1-GFP and/or CHOP-GFP (cluster 3) [6]: activation of Srxn1-GFP and/or CHOP-GFP
O=C(O)Cc1ccccc1Nc1c(Cl)cccc1Cl [Diclofenac] | – | – | – | 10.1 | inhibiting; also recorded: mild ICAM1-GFP suppression | – | Severity class [7]: Sev.; activation of Srxn1-GFP and/or CHOP-GFP (cluster 3) [6]: activation of Srxn1-GFP and/or CHOP-GFP
CCc1oc2ccccc2c1C(=O)c1cc(Br)c(O)c(Br)c1 [Benzbromarone] | YES | Most-DC | 8 | 4.34 | mild ICAM1-GFP suppression | – | activation of Srxn1-GFP and/or CHOP-GFP (cluster 3) [6]: activation of Srxn1-GFP and/or CHOP-GFP
COc1cc2c(c(OC)c1OC)-c1ccc(OC)c(=O)cc1[C@@H](NC(C)=O)CC2 [Colchicine] | YES | Amb.-DC | 6 | 0.016 | mild Srxn1-GFP and ICAM1-GFP activation | mild Srxn1-GFP and ICAM1-GFP activation | Severity class [7]: Non-sev.
CCOC(=O)/C=C\C(=O)OCC [Diethylmaleate] | – | – | – | – | – | strong inducers | –
CC1=C(CC(=O)O)c2cc(F)ccc2/C1=C\c1ccc([S+](C)[O-])cc1 (centres unmarked) [Sulindac] | YES | Most-DC | 8 | 32 | – | activation | –
O=C1CN(/N=C/c2ccc(-c3ccc([N+](=O)[O-])cc3)o2)C(O)=N1 [Dantrolene] | YES | Most-DC | 8 | 7.9 | mild ICAM1-GFP suppression | – | activation of Srxn1-GFP and/or CHOP-GFP (cluster 3) [6]: activation of Srxn1-GFP and/or CHOP-GFP
COc1cc([C@@H]2c3cc4c(cc3[C@@H](O[C@@H]3O[C@@H]5CO[C@@H](C)O[C@H]5[C@H](O)[C@H]3O)[C@H]3COC(=O)[C@H]23)OCO4)cc(OC)c1O [Etoposide] | YES | – | – | – | – | – | p21-GFP reporter response [8]: strong inducers
C/C=C(/C)C(=O)O[C@H]1C(C)=C2[C@H]([C@@H]1OC(=O)CCCCCCC)[C@@](C)(OC(C)=O)C[C@H](OC(=O)CCC)[C@@]1(O)[C@H]2OC(=O)[C@@]1(C)O [Thapsigargin] | – | – | – | – | – | – | CHOP-GFP reporter response [5]: strong inducers
CN(C)CCCN1c2ccccc2Sc2ccc(Cl)cc21 [Chlorpromazine] | YES | Less-DC | 2 | 0.94 | – | – | Srxn1-GFP response at the intensity feature level (cell population) [6]: would not have been defined as positive
CC(=O)Nc1ccc(O)cc1 [Acetaminophen] | YES | – | – | – | – | activation | –
CN1CCN(C2=Nc3cc(Cl)ccc3Nc3ccccc32)CC1 [Clozapine] | YES | – | – | 2.44 | strong ICAM1-GFP suppression | – | CHOP-GFP reporter response [5]: CHOP-GFP activation
CC(=O)N1CCN(c2ccc(OCC3COC(Cn4ccnc4)(c4ccc(Cl)cc4Cl)O3)cc2)CC1 (centres unmarked) [Ketoconazole] | – | Most-DC | 8 | 6.59 | – | – | Srxn1-GFP response at the intensity feature level (cell population) [6]: no Srxn1-response; earliest concentration with Srxn1 response, %GFP positive marker ([6]; multiples of C-max): 50 C-max
C[C@](N)(Cc1ccc(O)c(O)c1)C(=O)O [Methyldopa] | YES | Most-DC | 8 | 18.9 | inhibited | increased | p21-GFP reporter response [8]: increased
CCc1nn(CCCN2CCN(c3cccc(Cl)c3)CC2)c(=O)n1CCOc1ccccc1 [Nefazodone] | YES | Most-DC | 8 | 3.95 | strong ICAM1-GFP suppression | – | CHOP-GFP reporter response [5]: CHOP-GFP activation
